Measurements taken from patent US11279735B2, “Cyclic peptide antibiotics” (priority 2017, dated 2022).
In brackets after ≈: the same amount, converted by molar mass. *1 amine or outer side, *2 acyl side, *3 side chain or, on linkers, in order; H or OH if unused. Where a SMILES comes first, the peptide text is derived from it. [ ]: non-standard residue; d: D form. The star is where a group is joined. X13 = C[C@H](CO[C@H](CC1CC2(CCC2)C1)[C@@H](C)C(=O)[*:2])N[*:1]; X17 = CCCCCC[C@@H](O[C@H](C)CN[*:1])[C@@H](C)C(=O)[*:2]; X2 = CCCCCC[C@@H](OC[C@@H](C)N[*:1])[C@@H](C)C(=O)[*:2]; Gly(cHept) = N[C@H](C(=O)O)C1CCCCCC1; aThr = C[C@H](O)[C@H](N)C(=O)O; NMeL = CN[C@@H](CC(C)C)C(=O)O; Chg = N[C@H](C(=O)O)C1CCCCC1; NMeNva = CCC[C@H](NC)C(=O)O; X8 = NC[C@H]1C[C@H](*)C1; Dap = NC[C@H](N)C(=O)O; Ethyl(2-NH2) = NCC*; X20 = C1NCC1C*

Each compound was assayed on Escherichia coli (E. coli) strain CFT073 ATCC 700928. Conditions: ATCC 700928, 22 h.
Type: cell-based
In short: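 Broth microdilution MIC per CLSI M07-A8 in cation-adjusted Mueller Hinton II broth with 0.002% Tween-80. Ten-point 2-fold series topped at 64, 4, 0.5 or 0.13 μg/mL depending on protocol. Final inoculum OD600 0.0005, incubated 22 h at 35 °C.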
Compound CCCCCCC[C@H]1OC(=O)CNC(=O)[C@H]([C@H](C)O)NC(=O)[C@H](CO)NC(=O)[C@H]([C@H](C)CC)NC(=O)[C@H](CC(C)C)N(C)C(=O)[C@@H]1CC [Example 8, (6S,9S,12S,15S,18R,19R)-12-((R)-sec-Butyl)-18-ethyl-9-heptyl-6-((S)-1-hydroxyethyl)-9-(hydroxymethyl)-15-isobutyl-16-methyl-1-oxa-4,7,10,13,16-pentaazacyclononadecane-2,5,8,11,14,17-hexaone] has an MIC of 25 µM (≈ 17.1 µg/mL). CCCCCCCCCCCC[C@H]1OC(=O)CNC(=O)[C@H]([C@H](C)O)NC(=O)[C@H](CO)NC(=O)[C@H]([C@@H](C)CC)NC(=O)[C@H](CC(C)C)N(C)C(=O)[C@@H]1C [Example 35, (6S,9S,12S,15S,18R,19R)-19-dodecyl-6-[(1S)-1-hydroxyethyl]-9-(hydroxymethyl)-15-isobutyl-16,18-dimethyl-12-[(1S)-1-methylpropyl]-1-oxa-4,7,10,13,16-pentazacyclononadecane-2,5,8,11,14,17-hexone] showed an MIC of 6.3 µM (≈ 4.66 µg/mL). Work on CCCCCCCCCC[C@H]1OC(=O)CNC(=O)[C@H](CO)NC(=O)[C@H](CO)NC(=O)[C@H](CC2CCC2)NC(=O)[C@H](CC(C)C)N(C)C(=O)[C@@H]1C [Example 41, (6S,9S,12S,15S,18R,19R)-12-(cyclobutylmethyl)-19-decyl-6,9-bis(hydroxymethyl)-15-isobutyl-16,18-dimethyl-1-oxa-4,7,10,13,16-pentazacyclononadecane-2,5,8,11,14,17-hexone] yielded an MIC of 25 µM (≈ 17.7 µg/mL). With CCCCCC[C@H]1O[C@H](C)CNC(=O)[C@H]([C@H](C)O)NC(=O)[C@H](CN)NC(=O)[C@H](C2CCCCC2)NC(=O)[C@H](CC(C)C)N(C)C(=O)[C@@H]1C [Example 140, (2R,6S,9S,12S,15S,18R,19R)-9-(aminomethyl)-12-cyclohexyl-19-hexyl-15-isobutyl-2,16,18-trimethyl-6-[(1S)-1-hydroxyethyl]-1-oxa-4,7,10,13,16-pentazacyclononadecane-5,8,11,14,17-pentone] (cyclo([Chg][Dap][aThr][X17][NMeL])) the MIC was 35 µM (≈ 23.8 µg/mL). Compound CCCCCC[C@H]1OC(=O)CNC(=O)[C@H]([C@H](C)O)NC(=O)[C@H](CN)NC(=O)[C@H](C2CCCCC2)NC(=O)[C@H](CC(C)C)N(C)C(=O)[C@@H]1CC(F)(F)F [Example 68, (6S,9S,12S,15S,18R,19R)-9-(Aminomethyl)-12-cyclohexyl-19-hexyl-6-((S)-1-hydroxyethyl)-15-isobutyl-16-methyl-18-(2,2,2-trifluoroethyl)-1-oxa-4,7,10,13,16-pentaazacyclononadecane-2,5,8,11,14,17-hexaone] has an MIC of 3.1 µM (≈ 2.32 µg/mL). Compound CCCCCC[C@H]1OC[C@@H](C)NC(=O)[C@H](CO[C@H]2C[C@H](CN)C2)NC(=O)[C@H](CN)NC(=O)[C@H](C2CCCCC2)NC(=O)[C@H](CC(C)C)N(C)C(=O)[C@@H]1C [Example 149, (3R,6S,9S,12S,15S,18R,19R)-9-(Aminomethyl)-6-(((1r,3,S)-3-(aminomethyl)cyclobutoxy)methyl)-12-cyclohexyl-19-hexyl-15-isobutyl-3,16,18-trimethyl-1-oxa-4,7,10,13,16-pentaazacyclononadecane-5,8,11,14,17-pentaone] (cyclo([Chg][Dap]S(X8)[X2][NMeL])) has an MIC of 8.8 µM (≈ 6.6 µg/mL). Compound CCCCCCCCCC[C@H]1OC(=O)CNC(=O)[C@H](CO)NC(=O)[C@H](CO)NC(=O)[C@H](C2CCCCC2)NC(=O)[C@H](CC(C)C)N(C)C(=O)[C@@H]1C [Example 7, (6S,9S,12S,15S,18R,19R)-12-cyclohexyl-19-decyl-6,9-bis(hydroxymethyl)-15-isobutyl-16,18 dimethyl-1-oxa-4,7,10,13,16-pentazacyclononadecane-2,5,8,11,14,17-hexone] has an MIC of 3.1 µM (≈ 2.24 µg/mL). Work on CCC[C@H]1C(=O)N[C@@H](C2CCCCCC2)C(=O)N[C@@H](CN)C(=O)N[C@@H](COCC2CNC2)C(=O)N[C@H](C)CO[C@H](CC2CC3(CCC3)C2)[C@@H](C)C(=O)N1C [Example 171, (3R,6S,9S,12S,15S,18R,19R)-9-(Aminomethyl)-6-((azetidin-3-ylmethoxy)methyl)-12-cycloheptyl-3,16,18-trimethyl-15-propyl-19-(spiro[3.3]heptan-2-ylmethyl)-1-oxa-4,7,10,13,16-pentaazacyclononadecane-5,8,11,14,17-pentaone] (cyclo([Dap]S(X20)[X13][NMeNva][Gly(cHept)])) yielded an MIC of 6.3 µM (≈ 4.79 µg/mL). With CCCCCC[C@H]1OC[C@@H](C)NC(=O)[C@H](COCCN)NC(=O)[C@H](CN)NC(=O)[C@H](C2CCCCC2)NC(=O)[C@H](CC(C)C)N(C)C(=O)[C@@H]1C [Example 138, (3R,6S,9S,12S,15S,18R,19R)-6-(2-aminoethoxymethyl)-9-(aminomethyl)-12-cyclohexyl-19-hexyl-15-isobutx1-3,16,18-trimethyl-1-oxa-4,7,10,13,16-pentazacyclononadecane-5,8,11,14,17-pentone] (cyclo([Chg][Dap]S(Ethyl(2-NH2))[X2][NMeL])) the MIC was 12 µM (≈ 8.52 µg/mL). Compound CCCCCCCCCC[C@H]1OC(=O)CNC(=O)[C@H]([C@H](C)O)NC(=O)[C@H](CCN)NC(=O)[C@H]([C@@H](C)CC)NC(=O)[C@H](CC(C)C)N(C)C(=O)[C@@H]1C [Example 25, (6S,9S,12S,15S,18R,19R)-9-(2-aminoethyl)-19-decyl-6-[(1S)-1-hydroxyethyl]-15-isobutyl-16,18-dimethyl-12-[(1S)-1-methylpropyl]-1-oxa-4,7,10,13,16-pentazacyclononadecane-2,5,8,11,14,17-hexone] has an MIC of 25 µM (≈ 18.1 µg/mL). In the case of CCCCCC[C@H]1OC(=O)CNC(=O)[C@H](CNC(=O)C2CNC2)NC(=O)[C@H](CN)NC(=O)[C@H](C2CCCCC2)NC(=O)[C@H](CC(C)C)N(C)C(=O)[C@@H]1C [Example 72, N-(((6S,9S,12S,15S,18R,19R)-9-(Aminomethyl)-12-cyclohexyl-19-hexyl-15-isobutyl-16,18-dimethyl-2,5,8,11,14,17-hexaoxo-1-oxa-4,7,10,13,16-pentaazacyclononadecan-6-yl)methyl)azetidine-3-carboxamide], the MIC is reported as 12 µM (≈ 8.99 µg/mL). For CCCCCC[C@H]1OC(=O)CNC(=O)[C@H](CNC(=O)CN(C)C)NC(=O)[C@H](CN)NC(=O)[C@H](C2CCCCC2)NC(=O)[C@H](CC(C)C)N(C)C(=O)[C@@H]1C [Example 143, 2-(dimethylamino)-N-[[(6S,9S,12S,15S,18R,19R)-9-(aminomethyl)-12-cyclohexyl-19-hexyl-15-isobutyl-16,18-dimethyl-2,5,8,11,14,17-hexaoxo-1-oxa-4,7,10,13,16-pentazacyclononadec-6-yl]methyl]acetamide], the MIC was 25 µM (≈ 18.8 µg/mL). CCCCCC[C@H]1OC(=O)CNC(=O)[C@H]([C@H](C)O)NC(=O)[C@H](CN)NC(=O)[C@H](C2CCCCC2)NC(=O)[C@H](CC(C)C)N(C)C(=O)[C@@H]1CCOc1ccc(C)cc1 [Example 106, (6S,9S,12S,15S,18R,19R)-9-(aminomethyl)-12-cyclohexyl-19-hexyl-15-isobutyl-16-methyl-18-[2-(4-methylphenoxy)ethyl]-6-[(1S)-1-hydroxyethyl]-1-oxa-4,7,10,13,16-pentazacyclononadecane-2,5,8,11,14,17-hexone] showed an MIC of 6.3 µM (≈ 5.05 µg/mL).
